Measurements as given in patent publication US9856250B2, “Substituted tropane derivatives” (TOA EIYO LTD., priority 2014, dated 2018).
Where two headings read alike, the source gives them in different places.

Legend:
[1] = tested on: Salmonella typhimurium TA98 and TA100; assay: Reverse mutation test (Ames test), pre-incubation method; assay type: cell-based; details: strains TA98 and TA100; for Ames test S9 (−): absence of metabolic activation system (S9mix (−)); for Ames test S9 (+): presence of metabolic activation system (rat liver S9mix (+))
Description: The presence or absence of genotoxicity in the compounds of the present invention was evaluated by a reverse mutation test (Ames test) using bacteria. The test was performed by a pre-incubation method using two bacterial strains of Salmonella typhimurium TA98 and TA100, in the absence of a metabolic activation system (S9mix (−)) and in the presence of a metabolic activation system (S9mix (+)). The compounds were dissolved in dimethyl sulfoxide (DMSO), and thus test liquids were prepared. Regarding the negative control, the solvent DMSO was used. Regarding the positive control, 2-(2-furyl)-3-(5-nitro-2-furyl)acrylamide (AF-2) was used for S9mix (−), and 2-aminoanthracene (2-AA) was used for S9mix (+).
0.1 mL of a test liquid was introduced into a sterilized test tube, and then 0.5 mL of a 0.1 mol/L sodium phosphate buffer solution (pH 7.4) was added to the test tube in the case of S9mix (−), or 0.5 mL of rat liver S9mix was added to the test tube in the case of S9mix (+). Furthermore, 0.1 mL of a precultured test strain suspension was added to the test tube, and then the test strain was subjected to shaking culture for 20 minutes at 37° C. (preincubation). […] Subsequently, the content of the test tube was superposed on a minimum glucose agar medium plate and was spread evenly. The plate was cultured for 48 hours at 37° C. in a thermostat. After completion of culture, the number of reverse mutation colonies grown on the plate was measured using a colony counter. Regarding the determination, a case in which the number of reverse mutation colonies increased to twice or more of the number of colonies of the negative control, and concentration-dependency was recognized, was regarded as positive. […]

[2] = target: human T-type calcium channels (human Cav3.2) (Homo sapiens (Human), UniProt O95180); assay: Antagonistic activity against T-type calcium channels (Cav3.2), Fura2 intracellular calcium assay in HEK293 cells; assay type: cell-based
Sequence of human T-type calcium channels (human Cav3.2) (O95180 whole entry): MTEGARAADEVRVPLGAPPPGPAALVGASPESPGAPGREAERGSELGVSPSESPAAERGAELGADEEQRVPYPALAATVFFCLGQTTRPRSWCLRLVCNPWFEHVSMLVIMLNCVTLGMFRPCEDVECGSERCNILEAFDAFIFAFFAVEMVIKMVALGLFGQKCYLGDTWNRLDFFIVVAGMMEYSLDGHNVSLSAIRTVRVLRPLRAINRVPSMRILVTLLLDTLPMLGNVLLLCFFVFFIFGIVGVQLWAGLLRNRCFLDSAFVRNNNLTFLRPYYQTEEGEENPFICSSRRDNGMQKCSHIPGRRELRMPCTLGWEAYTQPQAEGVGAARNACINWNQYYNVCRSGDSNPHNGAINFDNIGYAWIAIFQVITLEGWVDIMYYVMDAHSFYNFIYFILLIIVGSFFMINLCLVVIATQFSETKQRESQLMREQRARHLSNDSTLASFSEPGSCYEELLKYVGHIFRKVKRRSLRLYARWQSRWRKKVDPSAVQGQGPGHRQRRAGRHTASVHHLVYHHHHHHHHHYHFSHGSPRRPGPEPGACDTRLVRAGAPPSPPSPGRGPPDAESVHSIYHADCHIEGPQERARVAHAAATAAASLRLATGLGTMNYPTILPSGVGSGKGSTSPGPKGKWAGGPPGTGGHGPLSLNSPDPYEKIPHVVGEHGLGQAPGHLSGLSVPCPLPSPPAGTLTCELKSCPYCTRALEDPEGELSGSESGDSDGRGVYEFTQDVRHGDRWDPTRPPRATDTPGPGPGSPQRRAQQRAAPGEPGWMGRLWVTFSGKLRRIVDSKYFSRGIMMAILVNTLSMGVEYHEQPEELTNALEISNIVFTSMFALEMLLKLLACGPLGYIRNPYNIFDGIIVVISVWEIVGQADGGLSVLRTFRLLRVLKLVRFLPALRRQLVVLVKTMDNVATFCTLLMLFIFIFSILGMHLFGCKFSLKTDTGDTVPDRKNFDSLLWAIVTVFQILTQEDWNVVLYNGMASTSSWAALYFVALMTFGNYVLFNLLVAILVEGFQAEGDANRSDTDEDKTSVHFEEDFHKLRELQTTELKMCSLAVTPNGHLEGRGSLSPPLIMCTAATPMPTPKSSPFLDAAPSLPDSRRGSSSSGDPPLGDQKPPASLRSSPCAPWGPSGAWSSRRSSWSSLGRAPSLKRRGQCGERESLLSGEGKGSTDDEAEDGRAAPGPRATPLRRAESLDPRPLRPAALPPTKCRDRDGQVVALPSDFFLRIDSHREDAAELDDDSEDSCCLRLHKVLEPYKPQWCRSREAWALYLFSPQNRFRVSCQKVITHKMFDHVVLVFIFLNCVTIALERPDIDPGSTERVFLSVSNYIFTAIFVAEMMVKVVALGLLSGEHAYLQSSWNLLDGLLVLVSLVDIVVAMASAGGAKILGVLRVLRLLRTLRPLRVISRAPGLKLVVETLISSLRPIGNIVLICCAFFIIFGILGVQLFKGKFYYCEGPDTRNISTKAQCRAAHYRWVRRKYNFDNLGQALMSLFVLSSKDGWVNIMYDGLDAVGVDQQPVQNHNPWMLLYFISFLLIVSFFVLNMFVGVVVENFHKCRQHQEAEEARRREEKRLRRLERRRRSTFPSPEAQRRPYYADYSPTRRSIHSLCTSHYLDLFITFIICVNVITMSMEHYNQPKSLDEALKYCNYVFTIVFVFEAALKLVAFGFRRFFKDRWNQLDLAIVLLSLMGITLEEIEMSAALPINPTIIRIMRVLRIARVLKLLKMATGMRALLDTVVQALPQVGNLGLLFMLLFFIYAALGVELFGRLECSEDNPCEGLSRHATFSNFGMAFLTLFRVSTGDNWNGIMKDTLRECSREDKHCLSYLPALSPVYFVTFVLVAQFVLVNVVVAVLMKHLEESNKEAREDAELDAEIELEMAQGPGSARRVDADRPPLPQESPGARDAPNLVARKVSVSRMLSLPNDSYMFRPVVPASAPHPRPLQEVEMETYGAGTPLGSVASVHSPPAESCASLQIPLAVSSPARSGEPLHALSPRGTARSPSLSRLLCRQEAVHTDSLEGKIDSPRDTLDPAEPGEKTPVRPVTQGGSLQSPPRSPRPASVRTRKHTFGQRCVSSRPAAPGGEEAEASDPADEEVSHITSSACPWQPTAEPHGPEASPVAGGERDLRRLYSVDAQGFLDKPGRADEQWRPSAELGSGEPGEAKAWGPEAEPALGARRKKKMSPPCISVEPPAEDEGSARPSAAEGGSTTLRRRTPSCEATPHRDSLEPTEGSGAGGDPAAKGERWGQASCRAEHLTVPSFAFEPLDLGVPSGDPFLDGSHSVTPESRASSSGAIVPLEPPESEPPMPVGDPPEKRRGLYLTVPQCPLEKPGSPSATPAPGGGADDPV
Description: For representative compounds of the present invention, the antagonistic activity against T-type calcium channels (Cav3.2) was examined by the Test Examples described below. For the respective tests, human embryo kidney cells (HEK293 cells) in which human T-type calcium channels (human Cav3.2) were stably expressed were used.
The HEK293 cells having human Cav3.2 stably expressed therein were cultured at 37° C. in Alpha-MEM, to which 10% (v/v) fetal bovine serum (FBS), penicillin (100 U/mL), streptomycin (100 μg/mL), and G418 ([…]) had been added. The cells were suspended in the culture liquid and were inoculated onto a 96-well plate. Subsequently, the cells were cultured for 48 hours. The culture liquid was removed, and the liquid was changed to S-MEM, to which 5% (v/v) FBS, calcium chloride (0.5 mmol/L), L-glutamine (2 mmol/L), L-alanine (8.9 ng/mL), L-asparagine (13.2 ng/mL), L-aspartic acid (1.33 ng/mL), L-glutamic acid (14.7 ng/mL), glycine (7.5 ng/mL), L-proline (11.5 ng/mL, L-serine (10.5 ng/mL), penicillin (100 U/mL), and streptomycin (100 μg/mL) had been added. The cells were cultured for another 24 hours. The culture liquid was removed again, and the cells were washed with an assay buffer (140 mmol/L sodium chloride, 5 mmol/L potassium chloride, 0.5 mmol/L magnesium chloride, 0.5 mmol/L calcium chloride, 10 mmol/L glucose, 0.4 mmol/L magnesium sulfate, 10 mmol/L HEPES, and […] sulfinpyrazone, pH 7.4) that had been kept warm at 37° C. Subsequently, an assay buffer prepared by dissolving Fura2-AM, which is a fluorescent Ca^2+ indicator, to a concentration of 5 μM, was added to the cells, and the system was incubated for 30 minutes at 37° C. The assay buffer having Fura2 dissolved therein was removed, and the cells were washed with the assay buffer. Subsequently, an assay buffer prepared by adding a test compound was added to the cells, and the system was incubated for 15 minutes. The plate was mounted on a fluorescence analyzer (FLEX STATION II, Molecular Devices, LLC), and the baseline was measured for 20 seconds. Subsequently, any change in the intracellular calcium concentration that was induced when an assay buffer prepared by adding 100 mmol/L calcium chloride was added to the cells, was measured (excited at 340 nm or 380 nm, and detected at 510 nm). The fluorescence intensity ratios obtainable at the respective wavelengths were calculated.
Meanwhile, the test compound solution was prepared by dissolving each test compound in DMSO to a concentration of 10 mmol/L, and then adjusting the concentration with the assay buffer so as to obtain the set concentration. For the control solution, DMSO was used instead of a test compound.
The inhibitory activity level (%) of a test compound was calculated by subtracting the average value of the fluorescence intensity ratio for a period of 0 to 20 seconds after initiation of measurement, from the average value of the fluorescence intensity ratio for a period of 45 to 50 seconds after initiation of measurement, taking the value obtained using the control solution as the maximum activity of Cav3.2, and comparing this value with the activity in the presence of the test compound.
Calculation of IC50 Value:
The inhibitory activity of each test compound was measured at concentrations of […], and the IC50 value was calculated using the curve fitting formula (Model 08: sigmoidal inhibition curve) of ASSAY EXPLORER (Symyx Technologies, Inc.).
Average of RFU value obtained for 25 to 30 seconds after the addition of a […] assay buffer after treatment with the control solution (for 45 to 50 seconds after the initiation of measurement). The RFU in the formula represents the Relative Fluorescence Unit.

[3] = HEK293 cells stably expressing human Cav3.2, Fura2 fluorescence ratio after calcium chloride addition, read-out: IC50

Compound | Ames test S9 (−) [1] | Ames test S9 (+) [1] | IC50 [2] [nM] | IC50 [2, 3] [nM]
CC(C)(C)NC(=O)CN1[C@@H]2CC[C@H]1C[C@@H](CC(=O)NC13CC4CC(CC(C4)O1)C3)C2.Cl [Example 152, 2-[(endo)-8-(tert-Butylcarbamoyl)methyl-8-azabicyclo[3.2.1]octan-3-yl]-N-(2-oxaadamantan-1-yl)acetamide hydrochloride] | Negative | Negative |  | 
COc1cccc2[nH]c(CC3CCN(CC(=O)NC(C)(C)C)CC3)nc12 [Control Compound 2, N-tert-Butyl-2-[4-(4-methoxy-1H-benzimidazol-2-yl)methylpiperidin-1-yl]acetamide, reference compound] | Negative | Positive |  | 
CC(C)(C)NC(=O)CN1[C@@H]2CC[C@H]1C[C@H](CNC(=O)c1cc(F)cc(Cl)c1)C2 [Example 54] | Negative | Negative | 20 | 
Cc1cc(C(=O)NC[C@@H]2C[C@H]3CC[C@@H](C2)N3CC(=O)NC(C)(C)C)n(C)n1 [Example 174] | Negative | Negative |  | 
CC(C)(C)NC(=O)CN1CCC(Cc2nc3ccc4c(c3[nH]2)OCCO4)CC1.Cl.Cl [Control Compound 3, N-tert-Butyl-2-[4-(5,6-dihydro-1H-[1,4]dioxino[2,3-e]benzimidazol-2-yl)methylpiperidin-1-yl]acetamide dihydrochloride, reference compound] | Negative | Positive |  | 
COc1ccc(OC)c2[nH]c(C[C@@H]3C[C@H]4CC[C@@H](C3)N4CC(=O)NC(C)(C)C)nc12 [Example 172] | Negative | Negative |  | 
Cc1cccc2[nH]c(CC3CCN(CC(=O)NC(C)(C)C)CC3)nc12 [Control Compound 1, N-tert-Butyl-2-[4-(4-methyl-1H-benzimidazol-2-yl)methylpiperidin-1-yl]acetamide, reference compound] | Negative | Positive |  | 
Cc1cccc2[nH]c(C[C@@H]3C[C@H]4CC[C@@H](C3)N4CC(=O)NC(C)(C)C)nc12 [Example 120, N-tert-Butyl-2-[(exo)-3-(4-methyl-1H-benzimidazol-2-yl)methyl-8-azabicyclo[3.2.1]octan-8-yl]acetamide] |  |  |  | 59
CC1(NC(=O)CN2[C@@H]3CC[C@H]2C[C@H](CNC(=O)c2cc(F)cc(Cl)c2)C3)CC1 [Example 115] |  |  |  | 63
CC(C)(C)CNC(=O)C[C@H]1C[C@H]2CC[C@@H](C1)N2CC(=O)NC(C)(C)C [Example 127, 2-[(endo)-8-(tert-Butylcarbamoyl)methyl-8-azabicyclo[3.2.1]octan-3-yl]-N-(2,2-dimethylpropyl) acetamide] |  |  |  | 73
COc1cccc2[nH]c(C[C@H]3C[C@H]4CC[C@@H](C3)N4CC(=O)NC(C)(C)C)nc12 [Example 145, N-tert-Butyl-2-[(endo)-3-(4-methoxy-1H-benzimidazol-2-yl)methyl-8-azabicyclo[3.2.1]octan-8-yl]acetamide] | Negative | Negative |  | 98
COCC(C)(C)NC(=O)CN1[C@@H]2CC[C@H]1C[C@H](CNC(=O)c1cc(F)cc(Cl)c1)C2 [Example 104, 3-Chloro-5-fluoro-N-{(exo)-8-[(2-methoxy-1,1-dimethylethyl)carbamoyl]methyl-8-azabicyclo[3.2.1]octan-3-yl}methylbenzamide] |  |  |  | 13
CC(C)(C)NC(=O)CN1[C@@H]2CC[C@H]1C[C@H](Cc1nc3c4c(ccc3[nH]1)OCCO4)C2 [Example 123, N-tert-Butyl-2-[(exo)-3-(5,6-dihydro-1H-[1,4]dioxino[2,3-e]benzimidazol-2-yl)methyl-8-azabicyclo[3.2.1]octan-8-yl]acetamide] | Negative | Negative |  | 
Cc1cc(F)cc(C(=O)NC[C@@H]2C[C@H]3CC[C@@H](C2)N3CC(=O)NC(C)(C)C)c1 [Example 55] |  |  |  | 36
Cn1cc(C(=O)NC[C@@H]2C[C@H]3CC[C@@H](C2)N3CC(=O)NC(C)(C)C)c2cc(Cl)ccc21 [Example 100, N-[(exo)-8-(tert-Butylcarbamoyl)methyl-8-azabicyclo[3.2.1]octan-3-yl]methyl-5-chloro-1-methyl-1H-indole-3-carboxamide] |  |  |  | 85
CC(C)(C)NC(=O)CN1[C@@H]2CC[C@H]1C[C@H](CNC(=O)c1cccc3c1CCC3)C2 [Example 60] |  |  |  | 78
COc1ccc2[nH]c(C[C@@H]3C[C@H]4CC[C@@H](C3)N4CC(=O)NC(C)(C)C)nc2c1OC [Example 155] | Negative | Negative |  | 
